Results published in patent US20240294541A1, “COMPOUNDS CONSTITUTING C20-MODIFIED SALINOMYCIN DERIVATIVES, A METHOD FOR OBTAINING THE SAME, A COMPOSITION CONTAINING THE SAME AND A USE OF SAID COMPOUNDS” (FILECLO SPOLKA Z OGRANICZONA ODPOWIEDZIALNOSCIA, priority 2021, published 2024).
Read-outs that look alike come from different tables or passages of the source.

Legend:
Assay type in all cases: cell-based
[1] = system: NCI-H23 (human lung cancer); experiment: In vitro cytotoxicity, SRB assay, NCI-H23; conditions: for IC50: Homo sapiens; for NCI-H23 SI: selectivity coefficient vs normal BALB/3T3 cells
Hs294T (human melanoma) = experiment: cells; conditions: for IC50: Homo sapiens, Hs 294T, 72 h with compound, SRB, n/a = non-active compound, read-out: Hs294T IC50; for Hs294T SI: selectivity coefficient vs normal BALB/3T3 cells
[2] = system: MIA PaCa-2 (human pancreatic cancer); experiment: cells; conditions: for IC50: Homo sapiens, MIA PaCa-2, 72 h with compound, SRB, n/a = non-active compound, read-out: MIA PaCa-2 IC50; for MIA PaCa-2 SI: selectivity coefficient vs normal BALB/3T3 cells
[3] = system: SNU-16 (human gastric cancer); experiment: cells; conditions: for IC50: Homo sapiens, SNU-16, 72 h with compound, MTT, n/a = non-active compound, read-out: SNU-16 IC50; for SNU-16 SI: selectivity coefficient vs normal BALB/3T3 cells
[4] = system: BALB/3T3 (normal mouse fibroblasts); experiment: In vitro cytotoxicity, SRB assay, normal BALB/3T3 fibroblasts; conditions: Mus musculus, BALB/3T3; normal cells; 72 h with compound, SRB; n/a = non-active compound; read-out: BALB/3T3 IC50
[5] = system: A2780 (human ovarian cancer); experiment: In vitro cytotoxicity, SRB assay, A2780; conditions: for IC50: Homo sapiens; for A2780 SI: selectivity coefficient vs normal BALB/3T3 cells
[6] = system: PFSK-1 (malignant primitive neuroectodermal tumour); experiment: In vitro cytotoxicity, SRB assay, PFSK-1; conditions: for IC50: Homo sapiens; for PFSK-1 SI: selectivity coefficient vs normal BALB/3T3 cells
[7] = system: A2780Cis (cisplatin-resistant human ovarian cancer); experiment: In vitro cytotoxicity, SRB assay, A2780Cis; conditions: for IC50: Homo sapiens, A2780cis, 72 h, read-out: A2780Cis IC50 (nM)
A375 (human melanoma) = experiment: In vitro cytotoxicity, SRB assay, A375; conditions: for IC50: Homo sapiens; for A375 SI: selectivity coefficient vs normal BALB/3T3 cells
[8] = system: KG-1 (human acute myeloid leukaemia); experiment: In vitro cytotoxicity, MTT assay, KG-1; conditions: for IC50: Homo sapiens, 72 h with compound, MTT, n/a = non-active compound; for KG-1 SI: selectivity coefficient vs normal BALB/3T3 cells
[9] = system: PLC/PRF/5 (human liver cancer); experiment: cells; conditions: for IC50: Homo sapiens, PLC-PRF-5, 72 h with compound, SRB, n/a = non-active compound, read-out: PLC/PRF/5 IC50; for PLC/PRF/5 SI: selectivity coefficient vs normal BALB/3T3 cells
[10] = NCI-H23, 72 h with compound, SRB, n/a = non-active compound, read-out: NCI-H23 IC50
[11] = A2780, 72 h with compound, SRB, n/a = non-active compound, read-out: A2780 IC50
[12] = PFSK-1, 72 h with compound, SRB, n/a = non-active compound, read-out: PFSK-1 IC50
[13] = A-375, 72 h with compound, SRB, n/a = non-active compound, read-out: A375 IC50

CCCCCCCNC(=O)N[C@@H]1C=C[C@]2(O[C@H]([C@@H](CC)C(=O)[C@@H](C)[C@@H](O)[C@H](C)[C@@H]3O[C@@H]([C@@H](CC)C(=O)O)CC[C@@H]3C)[C@@H](C)C[C@H]2C)O[C@@]12CC[C@@](C)([C@H]1CC[C@](O)(CC)[C@H](C)O1)O2 [FLC-00350-1]
IC50 [1, 10]: 101 nM | NCI-H23 SI [1]: 1.0 | IC50 (Hs294T (human melanoma)): 419 nM | Hs294T SI (Hs294T (human melanoma)): 0.2 | IC50 [2]: 37.4 nM | MIA PaCa-2 SI [2]: 2.8 | IC50 [3]: 18.2 nM | SNU-16 SI [3]: 5.7 | IC50 [4]: 103 nM | IC50 [5, 11]: 2.46 nM | A2780 SI [5]: 42.0 | IC50 [6, 12]: 7.25 nM | PFSK-1 SI [6]: 14.2 | A2780Cis RI [7]: 0.9 | A2780Cis SI [7]: 44.9 | IC50 [7]: 2.3 nM | IC50 (A375 (human melanoma); [13]): 251 nM | A375 SI (A375 (human melanoma)): 0.4 | IC50 [8]: 35.9 nM | KG-1 SI [8]: 2.9 | IC50 [9]: 23 nM | PLC/PRF/5 SI [9]: 4.5

CCNC(=O)N[C@@H]1C=C[C@]2(O[C@H]([C@@H](CC)C(=O)[C@@H](C)[C@@H](O)[C@H](C)[C@@H]3O[C@@H]([C@@H](CC)C(=O)O)CC[C@@H]3C)[C@@H](C)C[C@H]2C)O[C@@]12CC[C@@](C)([C@H]1CC[C@](O)(CC)[C@H](C)O1)O2 [FLC-00358-1]
IC50 [1, 10]: 113 nM | NCI-H23 SI [1]: 2.0 | IC50 (Hs294T (human melanoma)): 1640 nM | Hs294T SI (Hs294T (human melanoma)): 0.1 | IC50 [2]: 45.6 nM | MIA PaCa-2 SI [2]: 4.9 | IC50 [3]: 67.9 nM | SNU-16 SI [3]: 3.3 | IC50 [4]: 223 nM | IC50 [5, 11]: 3.32 nM | A2780 SI [5]: 67.0 | IC50 [6, 12]: 32.3 nM | PFSK-1 SI [6]: 6.9 | A2780Cis RI [7]: 0.7 | A2780Cis SI [7]: 98.1 | IC50 [7]: 2.27 nM | IC50 (A375 (human melanoma); [13]): 208 nM | A375 SI (A375 (human melanoma)): 1.1 | IC50 [8]: 67.7 nM | KG-1 SI [8]: 3.3 | IC50 [9]: 52.8 nM | PLC/PRF/5 SI [9]: 4.2

CCCCNC(=S)N[C@@H]1C=C[C@]2(O[C@H]([C@@H](CC)C(=O)[C@@H](C)[C@@H](O)[C@H](C)[C@@H]3O[C@@H]([C@@H](CC)C(=O)O)CC[C@@H]3C)[C@@H](C)C[C@H]2C)O[C@@]12CC[C@@](C)([C@H]1CC[C@](O)(CC)[C@H](C)O1)O2 [FLC-00368-1]
IC50 [1, 10]: 18.4 nM | NCI-H23 SI [1]: 7.1 | IC50 (Hs294T (human melanoma)): 152 nM | Hs294T SI (Hs294T (human melanoma)): 0.9 | IC50 [2]: 88.1 nM | MIA PaCa-2 SI [2]: 1.5 | IC50 [3]: 16 nM | SNU-16 SI [3]: 8.2 | IC50 [4]: 131 nM | IC50 [5, 11]: 3.54 nM | A2780 SI [5]: 37.1 | IC50 [6, 12]: 18.6 nM | PFSK-1 SI [6]: 7.0 | A2780Cis RI [7]: 0.8 | A2780Cis SI [7]: 44.2 | IC50 [7]: 2.97 nM | IC50 (A375 (human melanoma); [13]): 89.1 nM | A375 SI (A375 (human melanoma)): 1.5 | IC50 [8]: 28.2 nM | KG-1 SI [8]: 4.7 | IC50 [9]: 74.2 nM | PLC/PRF/5 SI [9]: 1.8

CC[C@@H](C(=O)[C@@H](C)[C@@H](O)[C@H](C)[C@@H]1O[C@@H]([C@@H](CC)C(=O)O)CC[C@@H]1C)[C@H]1O[C@]2(C=C[C@@H](NC(=S)Nc3ccc(Cl)c(Cl)c3)[C@]3(CC[C@@](C)([C@H]4CC[C@](O)(CC)[C@H](C)O4)O3)O2)[C@H](C)C[C@@H]1C [FLC-00379-1]
IC50 ([1]; NCI-H23, 72 h, read-out: NCI-H23 IC50 (nM)): 8.96 nM | NCI-H23 SI [1]: 11.0 | IC50 (Hs294T (human melanoma)): 108 nM | Hs294T SI (Hs294T (human melanoma)): 0.9 | IC50 [2]: 52.6 nM | MIA PaCa-2 SI [2]: 1.9 | IC50 [3]: 18 nM | SNU-16 SI [3]: 5.5 | IC50 [4]: 98.2 nM | IC50 ([5]; A2780, 72 h, read-out: A2780 IC50 (nM)): 4.31 nM | A2780 SI [5]: 22.8 | IC50 ([6]; PFSK-1, 72 h, read-out: PFSK-1 IC50 (nM)): 6.6 nM | PFSK-1 SI [6]: 14.9 | A2780Cis RI [7]: 0.2 | A2780Cis SI [7]: 121.2 | IC50 [7]: 0.81 nM | IC50 (A375 (human melanoma); A-375, 72 h, read-out: A375 IC50 (nM)): 68.1 nM | A375 SI (A375 (human melanoma)): 1.4 | IC50 [8]: 39 nM | KG-1 SI [8]: 2.5 | IC50 [9]: 22.1 nM | PLC/PRF/5 SI [9]: 4.5
